Test system: recombinant AMPK proteins (α1β1γ1, α2β1γ1, α1(1-335), α1(1-394) or α2(1-394))
Assay: Scintillation Proximity Assay (SPA), AMPK activation
Type: biochemical, human
Conditions: effective concentration of activator for 50% of maximal enzyme activity; 50 nM AMPK, 2 μM ATP, 2 μM biotin-SAMS, 30° C., 2 hours
Procedure: Recombinant human AMPK α1β1γ1, α2β1γ1 or AMPK α subunit truncations α1(1-335), α1(1-394) and α2(1-394) were constructed, expressed and purified as described previously (Pang, T., Zhang, Z. S., Gu, M., Qiu, B. Y., Yu, L. F., Cao, P. R., Shao, W., Su, M. B., Li, J. Y., Nan, F. J., and Li, J. (2008). Rat liver AMPK heterotrimer enzyme was obtained from Upstate (Billerica, Mass., U.S.A.).
Scintillation Proximity Assay
Before the Scintillation Proximity Assay (SPA) assay, 200 nM recombinant AMPK proteins (α1β1γ1, α2β1γ1, α1(1-335), α1(1-394) or α2(1-394)) were fully phosphorylated as described previously (Pang et al., 2008). SPA reactions were performed in 96-well plates at a final volume of 50 μL containing 20 mM Tris-HCl pH 7.5, 5 mM MgCl2, 1 mM DTT, 2 μM biotin-SAMS, 2 μM ATP, 0.2 μCi/well [γ-^33P]ATP, and various amount of activator. Reactions were initiated by the addition of 50 nM recombinant AMPK proteins to the reaction solutions and incubated at 30° C. for 2 hours. After that, reactions were terminated by the addition of 40 μL stop solution containing 80 μg streptavidin-coated SPA beads per well, 50 mM ED TA, 0.1% Triton X-100 in PBS, pH 7.5 and incubated for 1 hour. Finally, a 160 μL suspension solution containing 2.4 M CsCl, 50 mM EDTA, and 0.1% Triton X-100 in PBS (pH 7.5) was added to the reaction solution to suspend SPA beads completely. SPA signals were determined with a Wallac MicroBeta plate counter (PerkinElmer) 30 min later for calculation of the amount of product formed. The amount of products formed in 2 hour was plotted against activator concentrations to determine the effective concentration of the activator (EC50) required for 50% of maximal enzyme activity.

`CC1(C)CC(c2cc(Cl)ccc2F)Nc2ccc(C(=O)NC3CCC3)cc21` (stereo not shown) [Example 67, 2-(5-Chloro-2-fluoro-phenyl)-4,4-dimethyl-1,2,3,4-tetrahydro-quinoline-6-carboxylic acid cyclobutylamide] was tested, and the EC50 was 15.1 µM.

Compound `CC(CO)(CO)NC(=O)c1ccc2c(c1)C(C)(C)CC(c1cccc(N3CCOCC3)c1)N2` (stereo not shown) [Example 68, 4,4-Dimethyl-2-(3-morpholin-4-yl-phenyl)-1,2,3,4-tetrahydro-quinoline-6-carboxylic acid (2-hydroxy-1-hydroxymethyl-1-methyl-ethyl)-amide] has an EC50 of 1.56 µM.

`O=C(NC1CCC1)c1ccc2c(c1)C1(CCCC1)CC(c1ccc(F)c(Cl)c1)N2` (stereo not shown) [Example 69, 2-(3-Chloro-4-fluoro-phenyl)-spiro(cyclopentane-1,4′-1′,2′,3′,4′-tetrahydroquinoline)-6-carboxylic acid cyclobutylamide] showed an EC50 of 4.18 µM.

With `CCC1(C)CC(c2ccc(F)c(Cl)c2)Nc2ccc(C(=O)NC3CCC3)nc21` (stereo not shown) [Example 70, 6-(3-Chloro-4-fluoro-phenyl)-8-ethyl-8-methyl-5,6,7,8-tetrahydro-[1,5]naphthyridine-2-carboxylic acid cyclobutylamide] the EC50 was 9.17 µM.

— US8592594B2, “Tetrahydro-quinoline derivatives” (Hoffmann-La Roche Inc., priority 2010, dated 2013)
